For 8 compounds, mass density and activity coefficient results are on record in the NIST ThermoML archive (doi:10.1016/j.jct.2005.04.010).

For series [1] the following is noted: 101.33 kPa, Liquid.
Series [2] in a line: activity coefficient (dimensionless); of the first substance listed, at infinite dilution; xn = mol fraction of the nth substance listed. Particulars: Liquid, x1 = 0.

Numbers after ± are expanded uncertainties.

What is called mass density is the mass of a sample divided by its volume. Take `CCCCCCCCn1cc[n+](C)c1.O=S(=O)([N-]S(=O)(=O)C(F)(F)F)C(F)(F)F`: the mass density stood at 1325 ± 5 kg/m3 in series [1] (298.15 K); 1320 ± 5 kg/m3 in series [1] (303.15 K); 1316 ± 5 kg/m3 in series [1] (308.15 K); 1311 ± 5 kg/m3 in series [1] (313.15 K); 1307 ± 5 kg/m3 in series [1] (318.15 K); 1303 ± 5 kg/m3 in series [1] (323.15 K). For the same compound, the mass density in series [1] (328.15 K) is 1298 ± 5 kg/m3; in series [1] (333.15 K) it was 1294 ± 5 kg/m3; in series [1] (338.15 K) it was 1289 ± 5 kg/m3; in series [1] (343.15 K) it was 1285 ± 5 kg/m3.

As to `C=CCCCCCC` [oct-1-ene] + CCCCCC[n+]1ccn(C)c1.O=S(=O)([N-]S(=O)(=O)C(F)(F)F)C(F)(F)F, the activity coefficient in series [2] (303.15 K, Chromatography) came to 8.81 ± 0.4; in series [2] (303.15 K, dilutor), 8.28 ± 0.41; in series [2] (313.15 K, Chromatography), 8.47 ± 0.39; in series [2] (313.15 K, dilutor), 8.08 ± 0.4; in series [2] (323.15 K, Chromatography) it was 8.18 ± 0.38; in series [2] (323.15 K, dilutor) it was 7.92 ± 0.4. Besides, the activity coefficient in series [2] (333.15 K, Chromatography) amounted to 7.9 ± 0.36; in series [2] (333.15 K, dilutor) it was 7.77 ± 0.39.

In the case of `CCC(C)(C)OC` [2-methoxy-2-methylbutane] + CCCCCC[n+]1ccn(C)c1.O=S(=O)([N-]S(=O)(=O)C(F)(F)F)C(F)(F)F, the activity coefficient in series [2] (303.15 K, Chromatography) is 1.83 ± 0.08; in series [2] (313.15 K, Chromatography), 1.9 ± 0.08; in series [2] (323.15 K, Chromatography), 1.94 ± 0.09; in series [2] (333.15 K, Chromatography), 2.02 ± 0.09.

Regarding `C1=CCCCC1` [cyclohexene] + CCCCCC[n+]1ccn(C)c1.O=S(=O)([N-]S(=O)(=O)C(F)(F)F)C(F)(F)F, the activity coefficient in series [2] (303.15 K, Chromatography) came to 3.42 ± 0.16; in series [2] (303.15 K, dilutor), 3.2 ± 0.16; in series [2] (313.15 K, Chromatography), 3.28 ± 0.15; in series [2] (313.15 K, dilutor), 3.15 ± 0.16; in series [2] (323.15 K, Chromatography), 3.18 ± 0.14; in series [2] (323.15 K, dilutor) it was 3.07 ± 0.15. Further, the activity coefficient in series [2] (333.15 K, Chromatography) is 3.14 ± 0.14; in series [2] (333.15 K, dilutor), 3.01 ± 0.15.

In the case of `CC(C)=O` [acetone] + CCCCCC[n+]1ccn(C)c1.O=S(=O)([N-]S(=O)(=O)C(F)(F)F)C(F)(F)F, the activity coefficient came out at 0.31 ± 0.02 in series [2] (303.15 K, dilutor); 0.32 ± 0.02 in series [2] (313.15 K, dilutor); 0.34 ± 0.02 in series [2] (323.15 K, dilutor); 0.34 ± 0.02 in series [2] (333.15 K, dilutor).

For `CCCCCC` [hexane] + CCCCCC[n+]1ccn(C)c1.O=S(=O)([N-]S(=O)(=O)C(F)(F)F)C(F)(F)F, the activity coefficient in series [2] (303.15 K, Chromatography) is 8.23 ± 0.38; in series [2] (303.15 K, dilutor), 7.82 ± 0.39; in series [2] (313.15 K, Chromatography), 7.82 ± 0.36; in series [2] (313.15 K, dilutor), 7.55 ± 0.38; in series [2] (323.15 K, Chromatography), 7.48 ± 0.34; in series [2] (323.15 K, dilutor), 6.96 ± 0.35. Besides, the activity coefficient in series [2] (333.15 K, Chromatography) worked out at 7.27 ± 0.33; in series [2] (333.15 K, dilutor), 6.55 ± 0.33.

As for `C1CCCC1` [cyclopentane] + CCCCCC[n+]1ccn(C)c1.O=S(=O)([N-]S(=O)(=O)C(F)(F)F)C(F)(F)F, the activity coefficient in series [2] (303.15 K, dilutor) was determined as 3.64 ± 0.18; in series [2] (313.15 K, dilutor), 3.48 ± 0.17; in series [2] (323.15 K, dilutor), 3.27 ± 0.16; in series [2] (333.15 K, dilutor), 3.26 ± 0.16.

Take `C=CCCC` [1-pentene] + CCCCCC[n+]1ccn(C)c1.O=S(=O)([N-]S(=O)(=O)C(F)(F)F)C(F)(F)F: the activity coefficient in series [2] (303.15 K, Chromatography) amounted to 3.47 ± 0.16; in series [2] (303.15 K, dilutor) it was 3.36 ± 0.17; in series [2] (313.15 K, Chromatography) it was 3.4 ± 0.15; in series [2] (313.15 K, dilutor) it was 3.33 ± 0.17; in series [2] (323.15 K, Chromatography), 3.3 ± 0.15; in series [2] (323.15 K, dilutor), 3.3 ± 0.17. In addition, the activity coefficient is 3.31 ± 0.15 in series [2] (333.15 K, Chromatography) and 3.23 ± 0.16 in series [2] (333.15 K, dilutor).
